What is called IC50 is the concentration at which inhibition is half-maximal.

Among the data in patent US5563158A, “Aromatic compounds containing basic and acidic termini useful as fibrinogen receptor antagonists” (The Dupont Merck Pharmaceutical Company, priority 1994, dated 1996) are IC50 values, retold here.

The assay deals with platelet-rich plasma (PRP) platelets. In words: Platelet aggregation assay (agonist-induced aggregation in human platelet-rich plasma, aggregometer). It counts as cell-based. The settings on record: inhibition of agonist-induced platelet aggregation, test compounds added prior to activation of the platelets. On the procedure:
Platelet Aggregation Assay:
Venous blood was obtained from the arm of a healthy human donor who was drug-free and aspirin-free for at least two weeks prior to blood collection. Blood was collected into 10 mL citrated Vacutainer tubes. The blood was centrifuged for 15 minutes at 150×g at room temperature, and platelet-rich plasma (PRP) was removed. The remaining blood was centrifuged for 15 minutes at 1500×g at room temperature, and platelet-poor plasma (PPP) was removed. Samples were assayed on a aggregometer (PAP-4 Platelet Aggregation Profiler), using PPP as the blank (100% transmittance). 200 μL of PRP was added to each micro test tube, and transmittance was set to 0%. 20 μL of various agonists (ADP, collagen, arachidonate, epinephrine, thrombin) were added to each tube, and the aggregation profiles were plotted (% transmittance versus time). The results are expressed as % inhibition of agonist-induced platelet aggregation. For the IC50 evaluation, the test compounds were added at various concentrations prior to the activation of the platelets.

SMILES strings stand for the structures. Structures can show the parent of a compound that is named as a salt.

The molecule `CCOC(=O)C(CNC(=O)c1cccc(COc2ccc(C(=N)N)cc2)c1)NC(=O)OCc1ccccc1` (stereo not shown) [Example 110] displayed an IC50 of 10 to 50 µM.

Turning to `COC(=O)[C@H](CNC(=O)c1cccc(COc2ccc(C(=N)N)cc2)c1)NC(=O)Cc1ccccn1` [Example 500a], the IC50 was < 10 µM.

The molecule `O=C(O)CC1CCCCCN1C(=O)c1ccc(OCCCC2CCNCC2)cc1` (stereo not shown) [Example 481] gave an IC50 of 10 to 50 µM.

Regarding `O=C(O)CCNC(=O)c1ccc(OCCCC2CCNCC2)cc1` [Example 84b, TFA salt], the IC50 was < 10 µM.

As for `CCCCOC(=O)N[C@@H](CNC(=O)c1cc(OCc2ccc(C(=N)N)cc2)no1)C(=O)O` [Example 123, N^2-n-butyloxycarbonyl-N^3-[3-(4-amidinobenzyloxy)-5-isoxazolecarbonyl]-L-2,3-diaminopropionate TFA salt], the IC50 was < 10 µM.

Consider `COC(=O)[C@H](CNC(=O)c1cccc(COc2ccc(C(=N)N)cc2)c1)NC(=O)c1ccccn1` [Example 18a], for which the IC50 is < 10 µM.

With `O=C(O)CC1CCCCN1C(=O)c1ccc(OCCC2CCNCC2)cc1` (stereo not shown) [Example 482], the IC50 was in the range of 51 to 100 µM.

As for `COC(=O)[C@H](CNC(=O)c1cccc(COc2ccc(C(=N)N)cc2)c1)NS(=O)(=O)c1ccc(C)cc1` [Example 16a, Methyl N^2-p-toluenesulfonyl-N^3-(3-(4-amidinophenyloxymethyl)benzoyl)-L-2,3-diaminopropionate TFA salt], the IC50 was 10 to 50 µM.

For `CCCCOC(=O)N[C@@H](CNC(=O)c1cccc(COc2ccc(C(=N)N)cc2)c1)C(=O)OC` [Example 3a, Methyl N-^2-1-butyloxycarbonyl-N^3-(3-(4-amidinophenyloxymethyl)benzoyl)-L-2,3-diaminopropionate TFA salt], the IC50 was < 10 µM.

For `CCCCOC(=O)N[C@@H](CNC(=O)c1cc(OCC2CCN(C(=N)N)CC2)no1)C(=O)OC` [Example 479, Methyl N^2-n-butyloxycarbonyl-N-[3-(N-amidino-4-piperidinylmethoxy)-5-isoxazolecarbonyl]-L-2,3-diaminopropionate TFA salt], the IC50 was < 10 µM.

Regarding `COC(=O)[C@H](CNC(=O)c1cccc(COc2ccc(C(=N)N)cc2)c1)NC(=O)c1ccncc1` [Example 20a], the IC50 is < 10 µM.

`COC(=O)[C@H](CNC(=O)c1cccc(COc2ccc(C(=N)N)cc2)c1)NC(=O)Cc1cccnc1` [Example 119a, Methyl-N^2-3-pyridylacetoyl-N^3-[3-(4-amidinophenyloxymethyl)benzoyl]-L-2,3-diaminopropionate]: the IC50 was < 10 µM.

Consider `N=C(N)c1ccc(OCc2cccc(C(=O)NC[C@H](NC(=O)OCc3ccccc3)C(=O)O)c2)cc1` [Example 53, N^2 -Cbz-N^3-(3-(4-amidinophenyloxymethyl)benzoyl)-L-2,3-diaminopropionic acid TFA salt], for which the IC50 is < 10 µM.

For `CC(CC(=O)O)NC(=O)c1cccc(COc2ccc(C(=N)N)cc2)c1` (racemic) [Example 85, N-(3-(4-Amidinophenyloxymethyl)benzoyl)-DL-3-aminobutyric acid TFA salt], the IC50 was < 10 µM.

Regarding `COC(=O)[C@H](CNC(=O)c1cccc(COc2ccc(C(=N)N)cc2)c1)NC(=O)c1cccnc1` [Example 19a, Methyl-N^2-nicotinoyl-N^3-[3-(4-amidinophenyloxymethyl)benzoyl]-L-2,3-diaminopropionate, TFA salt], the IC50 was < 10 µM.

For `COC(=O)[C@H](CNC(=O)c1cccc(COc2ccc(C(=N)N)cc2)c1)NC(=O)Cc1ccncc1` [Example 501a], the IC50 was < 10 µM.

As for `CCCCS(=O)(=O)N[C@@H](CNC(=O)c1cccc(COc2ccc(C(=N)N)cc2)c1)C(=O)O` [Example 14, N^2-1-butanesulfonyl-N^3-(3-(4-amidinophenyloxymethyl)benzoyl)-2,3-diaminopropionic acid TFA salt], the IC50 was < 10 µM.

With `CCCCOC(=O)N[C@@H](CNC(=O)c1cc(OCc2ccc(C(=N)N)cc2)no1)C(=O)OC` [Example 142, Methyl N^2-n-butyloxycarbonyl-N^3-[3-(4-amidinobenzyloxy)-5 isoxazolecarbonyl]-L-2,3-diaminopropionate TFA salt], the half-inhibitory concentration (IC50) is < 10 µM.

Take `N=C(N)c1ccc(COc2cccc(C(=O)NC(CC(=O)O)C(F)(F)F)c2)cc1` (racemic) [Example 92, N-(3-(4-amidinobenzyloxy)benzoyl)-DL-3-amino-4,4,4-trifluorobutyric acid TFA salt]: the IC50 lay in the range of 51 to 100 µM.

Regarding `O=C(O)CC1CCCCN1C(=O)c1ccc(OCCCC2CCNCC2)cc1` (stereo not shown) [Example 480], the half-inhibitory concentration (IC50) lay within 10 to 50 µM.

Take `CC(CC(=O)O)NC(=O)c1cccc(OCc2ccc(C(=N)N)cc2)c1` (racemic) [Example 91, N-(3-(4-amidinobenzyloxy)benzoyl)-DL-3-aminobutyric acid TFA salt]: the half-inhibitory concentration (IC50) is < 10 µM.

In the case of `O=C(O)CCNC(=O)c1cccc(OCCCC2CCNCC2)c1` [Example 84a], the IC50 is < 10 µM.

For `N=C(N)c1ccc(OCc2cccc(C(=O)NCCC(=O)O)c2)cc1` [Example 27, N-(3-(4-amidinophenyloxymethyl)benzoyl)-3-aminopropionic acid TFA salt], the half-maximal inhibitory concentration (IC50) is < 10 µM.

As for `COC(=O)[C@H](CNC(=O)c1cccc(COc2ccc(C(=N)N)cc2)c1)NC(=O)CCc1ccccc1` [Example 6a, Methyl N^2-(3-phenylpropionyl)-N^3-(3-(4-amidinophenyloxymethyl)benzoyl)-L-2,3-diaminopropionate TFA salt], the IC50 was < 10 µM.

As for `Cc1ccc(S(=O)(=O)N[C@@H](CNC(=O)c2cccc(COc3ccc(C(=N)N)cc3)c2)C(=O)O)cc1` [Example 16, N^2-p-toluenesulfonyl-N^3-(3-(4-amidinophenyloxymethyl)benzoyl)-L-2,3-diaminopropionic acid TFA salt], the 50% inhibitory concentration (IC50) is < 10 µM.
